≈ marks a conversion by molar mass, not a printed value.
Columns and labels:
Gram-negative = details: cited from earlier work
Fungi = details: cited from earlier work
Gram-positive = details: cited from earlier work
Yeast = details: cited from earlier work
[1] = test system: Lactobacillus acidophilus; assay: Minimum inhibition concentration of prenilamine; format: cell-based
[2] = test system: Streptococcus haemolyticus; assay: Minimum inhibition concentration of prenilamine; format: cell-based
Streptococcus mitis = assay: Minimum inhibition concentration of prenilamine; format: cell-based
Haemophilus influensae = assay: Minimum inhibition concentration of prenilamine; format: cell-based
Neisseria pharingis = assay: Minimum inhibition concentration of prenilamine; format: cell-based
Staphylococcus epidermis = assay: Minimum inhibition concentration of prenilamine; format: cell-based
Streptococcus pneumoniae = assay: Minimum inhibition concentration of prenilamine; format: cell-based
Candida albicans = assay: Minimum inhibition concentration of prenilamine; format: cell-based
Listeria monocytogenes = assay: Minimum inhibition concentration of prenilamine; format: cell-based
[3] = test system: Corynebacterium diphtherise; assay: Minimum inhibition concentration of prenilamine; format: cell-based
Staphylococcus aureus = assay: Minimum inhibition concentration of prenilamine; format: cell-based
Streptococcus mutans = assay: Minimum inhibition concentration of prenilamine; format: cell-based
Solubility in water = format: physicochemical

O=C(OCc1ccccc1)c1ccc(O)cc1 [Benzyl paraben]
Minimum Inhibition Concentration (Gram-negative): 200 µg/mL
Minimum Inhibition Concentration (Fungi): 75 µg/mL
Minimum Inhibition Concentration (Gram-positive): 50 µg/mL
Minimum Inhibition Concentration (Yeast): 100 µg/mL

Oc1c(Cl)cc(Cl)c(Cl)c1Cc1c(O)c(Cl)cc(Cl)c1Cl [Hexachlorophene, 3,3',4,4',6,6'-hexachloro-2,2'-methylene-diphenoi]
Minimum Inhibition Concentration (Gram-positive): 1—10 µg/ml

COC(=O)c1ccc(O)cc1 [Methyl paraben, p-hydroxybenzoic acid methylester]
Minimum Inhibition Concentration (Gram-negative): 1000 µg/mL
Minimum Inhibition Concentration (Fungi): 500 µg/mL
Minimum Inhibition Concentration (Gram-positive): 800 µg/mL
Minimum Inhibition Concentration (Yeast): 1000 µg/mL

CC(Cc1ccccc1)NCCC(c1ccccc1)c1ccccc1 (stereo not shown) [prenilamine, 3,3-diphenylpropyl-1-methylphenethylamine]
MIC [1]: 5 µg/mL (≈ 15.2 µM)
Nature of effect [1]: bactericide
MIC [2]: 5 µg/mL (≈ 15.2 µM)
Nature of effect [2]: bactericide
MIC (Streptococcus mitis): 5 µg/mL (≈ 15.2 µM)
Nature of effect (Streptococcus mitis): bactericide
MIC (Haemophilus influensae): 60 µg/mL (≈ 182 µM)
Nature of effect (Haemophilus influensae): bactericide
MIC (Neisseria pharingis): 20 µg/mL (≈ 60.7 µM)
Nature of effect (Neisseria pharingis): bactericide
MIC (Staphylococcus epidermis): 30 µg/mL (≈ 91.1 µM)
Nature of effect (Staphylococcus epidermis): bactericide
MIC (Streptococcus pneumoniae): 30 µg/mL (≈ 91.1 µM)
Nature of effect (Streptococcus pneumoniae): bactericide
MIC (Candida albicans): 100 µg/mL (≈ 304 µM)
Nature of effect (Candida albicans): fungicide
MIC (Listeria monocytogenes): 10 µg/mL (≈ 30.4 µM)
Nature of effect (Listeria monocytogenes): bactericide
MIC [3]: 10 µg/mL (≈ 30.4 µM)
Nature of effect [3]: bactericide
MIC (Staphylococcus aureus): 30 µg/mL (≈ 91.1 µM)
Nature of effect (Staphylococcus aureus): bactericide
MIC (Streptococcus mutans): 5 µg/mL (≈ 15.2 µM)
Nature of effect (Streptococcus mutans): bactericide
solubility in water (Solubility in water): do not dissolve well in water

Reference: EP0105872B1, “NOVEL COSMETIC COMPOSITIONS CONTAINING PRENYLAMINE AND A PROCESS FOR THEIR PREPARATION” (CAOLA KOZMETIKAI ES HAZTARTÄSVEGYIPARI VALLALAT, priority 1982, dated 1983)
